Measured values: patent US20250313535A1, “ALPHA 4 BETA 7 INTEGRIN MODULATORS AND USES THEREOF” (DICE MOLECULES SV, INC., priority 2022, published 2025)

Legend:
α4β1 integrin = α4β1 integrin (Homo sapiens (Human), UniProt P05556+P13612); test: Integrin Adhesion Assay: Protocol 2 (VCAM-coated plate, Jurkat cells, CellTiter GLO readout); type: cell-based; conditions: determined by at least one of the assays described (protocol not specified)
Experimental: α4β7 and α4β1 inhibition was evaluated in vitro using at least one of the following procedures:
Integrin Adhesion Assay: Protocol 2
VCAM (R&D Systems, 0.1 ug) was diluted in 50 μL PBS, added to each well of an opaque ELISA plate (Thermo), and incubated overnight at 4° C. Coated plates were washed once with PBS and then blocked with 200 μL of assay buffer (10 mM HEPES, 150 mM NaCl, 1 mM MnCl2, 0.1 mM CaCl2), 1% BSA) for 1 hour at 37° C. and 5% CO2. After incubation, buffer was aspirated from the plates and 50 μL of fresh assay buffer was added. Compounds were added by compounds dispenser (Tecan) and DMSO concentration was normalized to 1% across each plate. 50 μL of Jurkat cells (2×10^6 per mL) were added to each well and the plates were incubated for 1 hour at 37° C. and 5% CO2. After incubation, plates were allowed to cool to RT for 10 minutes before being washed four times in assay buffer by an automated plate washer (BioTek). After washing, 100 μL of a 1:1 mixture of assay buffer and CellTiter GLO 2.0 reagent (Promega) were added to each well. Plates were mixed for 2 minutes at 1000 rpm and then allowed to incubate an additional 10 minutes before reading out luminescence on a Tecan Spark plate reader. Raw data was converted to percent inhibition based on DMSO only and control compound wells, and curves were analyzed by 4-parameter fit within Dotmatics software.

α4β7 integrin = α4β7 integrin (Homo sapiens (Human), UniProt P13612+P26010); test: Integrin Adhesion Assay: Protocol 1 (MAdCAM-coated plate, RPMI-8866 cells, CellTiter GLO readout); type: cell-based; conditions: integrin adhesion assay; determined by at least one of the assays described (protocol not specified)
Sequence of α4β7 integrin (P13612 34-1032): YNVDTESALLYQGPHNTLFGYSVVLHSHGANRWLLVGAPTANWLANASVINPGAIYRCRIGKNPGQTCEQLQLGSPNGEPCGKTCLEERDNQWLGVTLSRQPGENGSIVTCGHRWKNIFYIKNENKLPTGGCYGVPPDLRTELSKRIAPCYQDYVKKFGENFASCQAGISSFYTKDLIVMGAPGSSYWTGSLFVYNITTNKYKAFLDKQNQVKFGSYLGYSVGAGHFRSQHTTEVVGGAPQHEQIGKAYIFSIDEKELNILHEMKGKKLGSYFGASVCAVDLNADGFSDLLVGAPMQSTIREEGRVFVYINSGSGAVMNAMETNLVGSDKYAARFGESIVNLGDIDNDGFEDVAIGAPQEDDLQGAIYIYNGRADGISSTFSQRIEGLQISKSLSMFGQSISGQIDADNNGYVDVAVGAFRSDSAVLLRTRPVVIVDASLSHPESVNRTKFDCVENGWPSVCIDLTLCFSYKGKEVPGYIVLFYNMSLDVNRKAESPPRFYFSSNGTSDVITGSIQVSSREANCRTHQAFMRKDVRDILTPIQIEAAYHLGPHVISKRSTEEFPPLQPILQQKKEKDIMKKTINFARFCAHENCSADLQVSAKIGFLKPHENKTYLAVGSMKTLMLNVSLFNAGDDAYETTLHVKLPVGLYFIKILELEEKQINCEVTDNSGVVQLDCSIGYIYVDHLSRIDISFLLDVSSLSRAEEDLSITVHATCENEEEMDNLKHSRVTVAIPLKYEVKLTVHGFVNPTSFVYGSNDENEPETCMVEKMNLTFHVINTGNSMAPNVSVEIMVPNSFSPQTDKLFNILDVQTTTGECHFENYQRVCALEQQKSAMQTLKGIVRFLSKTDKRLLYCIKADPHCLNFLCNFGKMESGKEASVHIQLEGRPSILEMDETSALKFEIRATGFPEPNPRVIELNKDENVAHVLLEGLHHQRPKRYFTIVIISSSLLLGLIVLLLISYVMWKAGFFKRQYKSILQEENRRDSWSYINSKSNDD
Sequence of α4β7 integrin (P26010 20-798): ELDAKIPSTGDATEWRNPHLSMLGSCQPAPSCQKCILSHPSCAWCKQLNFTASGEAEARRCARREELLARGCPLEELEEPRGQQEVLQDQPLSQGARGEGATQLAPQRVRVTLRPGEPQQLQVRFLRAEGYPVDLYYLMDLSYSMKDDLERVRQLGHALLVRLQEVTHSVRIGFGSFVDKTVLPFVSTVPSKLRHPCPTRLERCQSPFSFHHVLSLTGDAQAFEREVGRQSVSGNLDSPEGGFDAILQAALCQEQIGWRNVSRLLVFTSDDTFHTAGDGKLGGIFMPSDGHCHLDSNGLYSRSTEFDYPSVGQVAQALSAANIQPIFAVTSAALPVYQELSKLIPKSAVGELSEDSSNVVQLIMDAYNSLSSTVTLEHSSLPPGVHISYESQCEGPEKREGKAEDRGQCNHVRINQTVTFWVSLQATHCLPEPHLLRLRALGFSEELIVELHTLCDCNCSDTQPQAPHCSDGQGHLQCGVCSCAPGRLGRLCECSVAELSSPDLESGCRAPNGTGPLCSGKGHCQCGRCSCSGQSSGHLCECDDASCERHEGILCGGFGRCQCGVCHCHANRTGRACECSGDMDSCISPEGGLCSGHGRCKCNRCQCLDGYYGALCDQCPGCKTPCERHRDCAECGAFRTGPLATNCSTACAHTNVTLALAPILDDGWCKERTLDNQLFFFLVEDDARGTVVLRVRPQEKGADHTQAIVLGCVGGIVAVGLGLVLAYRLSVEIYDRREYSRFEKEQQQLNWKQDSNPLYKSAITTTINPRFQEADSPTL
Method in brief: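 RPMI-8866 cells (2×10^6 per mL) added with compounds (1% DMSO) to MAdCAM-coated wells blocked in HEPES/NaCl buffer with 1 mM MnCl2, 0.1 mM CaCl2, 1% BSA; 1 h at 37° C, 5% CO2. After four washes, bound cells read by CellTiter GLO luminescence; % inhibition vs DMSO and control wells, 4-parameter fit.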

Sequence of α4β1 integrin (P13612 34-1032): as the sequence (P13612 34-1032) above
Sequence of α4β1 integrin (P05556 21-798): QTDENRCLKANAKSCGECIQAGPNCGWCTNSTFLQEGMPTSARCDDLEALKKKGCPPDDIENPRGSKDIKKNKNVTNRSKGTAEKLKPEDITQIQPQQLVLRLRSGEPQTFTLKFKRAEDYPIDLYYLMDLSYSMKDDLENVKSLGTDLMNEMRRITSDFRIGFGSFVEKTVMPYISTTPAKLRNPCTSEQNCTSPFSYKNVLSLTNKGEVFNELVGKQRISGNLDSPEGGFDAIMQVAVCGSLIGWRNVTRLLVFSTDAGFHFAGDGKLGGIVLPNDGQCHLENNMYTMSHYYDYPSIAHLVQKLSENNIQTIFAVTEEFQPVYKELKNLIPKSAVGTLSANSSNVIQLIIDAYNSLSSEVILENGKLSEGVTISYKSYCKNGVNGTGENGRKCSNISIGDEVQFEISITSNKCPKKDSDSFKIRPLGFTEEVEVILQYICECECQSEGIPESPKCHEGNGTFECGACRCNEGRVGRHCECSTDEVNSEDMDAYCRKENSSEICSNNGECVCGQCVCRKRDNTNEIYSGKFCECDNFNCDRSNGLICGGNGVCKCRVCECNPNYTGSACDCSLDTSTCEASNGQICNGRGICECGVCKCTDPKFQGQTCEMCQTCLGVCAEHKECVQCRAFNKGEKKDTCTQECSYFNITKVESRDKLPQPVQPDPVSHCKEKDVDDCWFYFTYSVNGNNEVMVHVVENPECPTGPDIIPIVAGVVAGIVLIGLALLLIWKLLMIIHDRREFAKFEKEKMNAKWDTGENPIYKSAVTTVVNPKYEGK

Row | SMILES | IC50 (α4β1 integrin) | IC50 (α4β7 integrin)
1 | Cn1ccc(=O)n([C@@H]2CCc3c(C[C@H](NC(=O)c4c(F)cccc4F)C(=O)O)cccc32)c1=O (single isomer, unassigned) [Compound 281] | > 1 µM | 0.01 to 0.1 µM
2 | Cn1ccc(=O)n(-c2cccc3c(C[C@H](NC(=O)c4c(F)cc5ncccc5c4F)C(=O)O)cccc23)c1=O [Compound 133] | > 1 µM | < 0.01 µM
3 | Cn1ccc(=O)n(-c2cccc3c(C[C@H](NC(=O)c4c(F)ccc(C(F)(F)F)c4F)C(=O)O)cccc23)c1=O [Compound 29] | > 1 µM | 0.01 to 0.1 µM
4 | Cn1ccc(=O)n(-c2cccc3c(C[C@H](NC(=O)C(F)(F)Sc4ccc(Cl)cc4Cl)C(=O)O)cccc23)c1=O [Compound 76] | > 1 µM | > 1 µM
5 | Cn1ccc(=O)n(-c2cccc3c(C[C@H](NC(=O)c4c(F)cc(CN5CCC5)cc4F)C(=O)O)cccc23)c1=O [Compound 33] | > 1 µM | > 1 µM
6 | Cn1ccc(C(F)(F)F)c(-c2nccc3c(C[C@H](NC(=O)c4c(Cl)cc(N5CCOC[C@@H]5C(F)(F)F)cc4CN4CCOCC4)C(=O)O)cccc23)c1=O [Compound 225] | > 1 µM | < 0.01 µM
7 | Cn1ccc(=O)n(-c2cccc3c(C[C@H](NC(=O)c4c(F)cc5cnn(CC(F)(F)F)c5c4F)C(=O)O)cccc23)c1=O [Compound 16] | 0.1 to 1 µM | < 0.01 µM
8 | Cn1ccc(=O)n(-c2cccc3c(C[C@H](NC(=O)c4c(F)cc5cn(CC(F)(F)F)nc5c4F)C(=O)O)cccc23)c1=O [Compound 144] | 0.1 to 1 µM | 0.01 to 0.1 µM
9 | Cn1ccc(=O)n(-c2cccc3c(C[C@H](NC(=O)c4c(F)cc(N(CC(F)(F)F)CC(F)(F)F)cc4F)C(=O)O)cccc23)c1=O [Compound 130] | > 1 µM | < 0.01 µM
10 | CNC(=O)[C@@H]1CCN1C(=O)c1ccc2cc(C(=O)N[C@@H](Cc3cccc4c(-n5c(=O)ccn(C)c5=O)cccc34)C(=O)O)ccc2c1 [Compound 127] | > 1 µM | > 1 µM
11 | Cn1ccc(=O)n(-c2cccc3c(C[C@H](NC(=O)[C@@H]4CCCN4c4ccccc4C#N)C(=O)O)cccc23)c1=O [Compound 79] | > 1 µM | 0.01 to 0.1 µM
12 | Cn1ccc(=O)n(-c2cccc3c(C[C@H](NC(=O)c4c(F)cc5c(ccn5C)c4F)C(=O)O)cccc23)c1=O [Compound 27] | > 1 µM | 0.01 to 0.1 µM
13 | Cn1ccc(C(F)(F)F)c(-c2nccc3c(C[C@H](NC(=O)c4c(F)cccc4C(F)(F)F)C(=O)O)cccc23)c1=O [Compound 258] | > 1 µM | 0.1 to 1 µM
14 | O=C(N[C@@H](Cc1cccc2c(-c3cccc4ccncc34)nccc12)C(=O)O)c1c(F)cc(N(CC(F)(F)F)CC(F)(F)F)cc1CN1CCCC1 [Compound 222] | > 1 µM | < 0.01 µM
15 | Cn1ccc(=O)n(-c2cccc3c(C[C@H](NC(=O)c4c(F)ccc(NS(=O)(=O)C(F)(F)F)c4F)C(=O)O)cccc23)c1=O [Compound 12] | 0.1 to 1 µM | < 0.01 µM
16 | Cn1ccc(=O)n(-c2cccc3c(C[C@H](NC(=O)[C@]45C[C@@H]6C[C@H](C4)C(F)(F)[C@@H](C6)C5)C(=O)O)cccc23)c1=O [Compound 65] | 0.1 to 1 µM | 0.1 to 1 µM
17 | Cn1ccc(C(F)(F)F)c(-c2nccc3c(C[C@H](NC(=O)c4c(F)cccc4F)C(=O)O)cccc23)c1=O [Compound 210] | > 1 µM | < 0.01 µM
18 | COc1ccc(F)c(C(=O)N[C@@H](Cc2cccc3c(-n4c(=O)ccn(C)c4=O)cccc23)C(=O)O)c1F [Compound 138] | > 1 µM | 0.01 to 0.1 µM
19 | CN1CCN(c2cc(F)c(C(=O)N[C@@H](Cc3cccc4c(-c5c(C(F)(F)F)ccn(C)c5=O)nccc34)C(=O)O)c(F)c2)[C@@H](C(F)(F)F)C1 [Compound 249] | > 1 µM | 0.01 to 0.1 µM
20 | O=C(N[C@@H](Cc1cccc2c(-c3cccc4ccncc34)cccc12)C(=O)O)c1c(F)cc(N(CC(F)(F)F)CC(F)(F)F)cc1CN1CCCC1 [Compound 151] | > 1 µM | < 0.01 µM
21 | CCC1(C(=O)N[C@@H](Cc2cccc3c(-n4c(=O)ccn(C)c4=O)cccc23)C(=O)O)CCN(CC(F)(F)F)CC1 [Compound 152] | 0.1 to 1 µM | 0.01 to 0.1 µM
22 | CCOCc1cc(OC)c(-c2nccc3c(C[C@H](NC(=O)c4c(F)cc(N5CCOC[C@@H]5C(F)(F)F)cc4F)C(=O)O)cccc23)c(OC)c1 [Compound 259] | 0.1 to 1 µM | < 0.01 µM
23 | Cn1ccc(C(F)(F)F)c(-c2nccc3c(C[C@H](NC(=O)c4c(F)cc(NCC(F)(F)F)cc4CN4CCCC4)C(=O)O)cccc23)c1=O [Compound 254] | > 1 µM | < 0.01 µM

Row | SMILES | IC50 (α4β1 integrin) | IC50 (α4β7 integrin)
24 | CN(C)CCn1ccc(=O)n(-c2cccc3c(C[C@H](NC(=O)c4c(F)cccc4F)C(=O)O)cccc23)c1=O [Compound 119] | > 1 µM | 0.01 to 0.1 µM
25 | CN(C)CCc1cn(C)c(=O)n(-c2cccc3c(C[C@H](NC(=O)c4c(F)cccc4F)C(=O)O)cccc23)c1=O [Compound 117] | > 1 µM | 0.01 to 0.1 µM
26 | O=C(N[C@@H](Cc1cccc2c(-c3nccc4ccncc34)cccc12)C(=O)O)c1c(F)cc(N2CCOC[C@H]2CC(F)F)cc1F [Compound 140] | > 1 µM | 0.1 to 1 µM
27 | Cn1ccc(C(F)(F)F)c(-c2cccc3c(C[C@H](NC(=O)c4c(F)cc(N5CCOC[C@@H]5C(F)(F)F)cc4CN4CCOCC4)C(=O)O)cccc23)c1=O [Compound 143] | 0.1 to 1 µM | < 0.01 µM
28 | Cn1ccc(=O)n(-c2cccc3c(C[C@H](NC(=O)C45CCC(C)(CC4)CC5)C(=O)O)cccc23)c1=O [Compound 52] | > 1 µM | 0.1 to 1 µM
29 | Cn1ccc(=O)n(-c2cccc3c(C[C@H](NC(=O)C45CCN(CC4)CC5)C(=O)O)cccc23)c1=O [Compound 62] | > 1 µM | > 1 µM
30 | O=C(N[C@@H](Cc1cccc2c(-c3nccc4ccncc34)cccc12)C(=O)O)c1c(F)cc(CN2CCOCC2)cc1F [Compound 38] | > 1 µM | 0.1 to 1 µM
31 | Cn1ccc(=O)n(-c2cccc3c(C[C@H](NC(=O)c4c(F)ccc(OC(F)F)c4F)C(=O)O)cccc23)c1=O [Compound 31] | 0.1 to 1 µM | 0.01 to 0.1 µM
32 | Cn1ccc(=O)n(-c2cccc3c(C[C@H](NC(=O)c4c(F)cc(NS(=O)(=O)C(F)(F)F)cc4F)C(=O)O)cccc23)c1=O [Compound 8] | 0.1 to 1 µM | < 0.01 µM
33 | COCCN1CCC(C)(C(=O)N[C@@H](Cc2cccc3c(-n4c(=O)ccn(C)c4=O)cccc23)C(=O)O)CC1 [Compound 159] | > 1 µM | 0.1 to 1 µM
34 | Cn1ccc(=O)n(-c2cccc3c(C[C@H](NC(=O)c4c(Cl)cccc4Cl)C(=O)O)cccc23)c1=O [Compound 14] | > 1 µM | < 0.01 µM
35 | Cn1ccc(C(F)(F)F)c(-c2nccc3c(C[C@H](NC(=O)c4c(F)cc(N5CCOCC56CC6)cc4F)C(=O)O)cccc23)c1=O [Compound 217] | > 1 µM | < 0.01 µM
36 | Cn1ccc(=O)n(-c2cccc3c(C[C@H](NC(=O)C4(C)CCN(CC(F)(F)F)CC4)C(=O)O)cccc23)c1=O [Compound 18] | > 1 µM | 0.01 to 0.1 µM
37 | CN1CCN(c2cc(F)c(C(=O)N[C@@H](Cc3cccc4c(-n5c(=O)ccn(C)c5=O)cccc34)C(=O)O)c(F)c2)[C@@H](C(F)(F)F)C1 [Compound 21] | > 1 µM | 0.01 to 0.1 µM
38 | Cn1ccc(C(F)(F)F)c(-c2nccc3c(C[C@H](NC(=O)c4c(Cl)cc(N5CCOC[C@@H]5C(F)(F)F)cc4CN4CCC(F)(F)CC4)C(=O)O)cccc23)c1=O [Compound 224] | > 1 µM | 0.01 to 0.1 µM
39 | CCN1CCC(C)(C(=O)N[C@@H](Cc2cccc3c(-n4c(=O)ccn(C)c4=O)cccc23)C(=O)O)C(F)(F)C1 (stereo partly drawn) [Compound 56] | > 1 µM | 0.1 to 1 µM
40 | CN(C)CCc1cc(=O)n(-c2cccc3c(C[C@H](NC(=O)c4c(F)cccc4F)C(=O)O)cccc23)c(=O)n1C [Compound 116] | > 1 µM | 0.01 to 0.1 µM
41 | Cn1ccc(C(F)(F)F)c(-c2cccc3c(C[C@H](NC(=O)c4c(F)cc(N5CCOC[C@@H]5C(F)(F)F)cc4F)C(=O)O)cccc23)c1=O [Compound 142] | > 1 µM | 0.01 to 0.1 µM
42 | Cn1ccc(C(F)(F)F)c(-c2nccc3c(C[C@H](NC(=O)c4cc(F)cc(CSc5ccccc5)c4)C(=O)O)cccc23)c1=O [Compound 229] | > 1 µM | > 1 µM
43 | Cn1ccc(=O)n(-c2cccc3c(C[C@H](NC(=O)c4cc5ncn(CC(F)(F)F)c5cc4F)C(=O)O)cccc23)c1=O [Compound 124] | > 1 µM | 0.01 to 0.1 µM
44 | Cn1ccc(=O)n(-c2cccc3c(C[C@H](NC(=O)c4c(F)cccc4F)C(=O)O)cccc23)c1=O [Compound 1] | 0.1 to 1 µM | 0.01 to 0.1 µM
45 | Cn1ccc(=O)n(-c2cccc3c(C[C@H](NC(=O)C4CCN(CC(F)(F)F)CC4)C(=O)O)cccc23)c1=O [Compound 35] | > 1 µM | > 1 µM
